# According to patent US20240109881A1, “Heteroaryl Compounds as Ligand Directed Degraders of IRAK4” (Bristol-Myers Squibb Company, priority 2022, published 2024):
# Biological target: T1, IRAK4 (Homo sapiens, UniProt Q9NWZ3)
# T1 construct: endogenous in cells; host or cells: THP-1 cells
# T1 sequence (Q9NWZ3 1-460): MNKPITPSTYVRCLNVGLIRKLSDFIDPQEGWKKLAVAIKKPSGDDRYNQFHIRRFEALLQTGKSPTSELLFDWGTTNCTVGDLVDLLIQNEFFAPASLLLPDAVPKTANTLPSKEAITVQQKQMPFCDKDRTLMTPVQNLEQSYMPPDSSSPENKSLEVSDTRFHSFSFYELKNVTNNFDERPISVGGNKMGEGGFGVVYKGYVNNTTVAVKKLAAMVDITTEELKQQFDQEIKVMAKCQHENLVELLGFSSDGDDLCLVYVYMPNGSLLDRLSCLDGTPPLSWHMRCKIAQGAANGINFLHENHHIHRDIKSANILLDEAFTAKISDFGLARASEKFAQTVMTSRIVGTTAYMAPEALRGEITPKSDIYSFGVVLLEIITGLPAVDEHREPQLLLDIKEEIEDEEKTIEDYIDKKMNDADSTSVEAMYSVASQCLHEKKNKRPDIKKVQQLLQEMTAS
# Experiment: ALE THP1 HTRF (Advanced Lipoxidation End Product THP1 Homogeneous Time Resolved Fluorescence)
# Assay type: cell-based
# Conditions: THP1 cells
# Procedure: For Homogenous Time Resolved Fluorescence (HTRF) assays, a Cisbio HTRF kit was used, which included: Lysis Buffer #1 4×, Blocking Reagent #3 100×, 20× Antibody 1 (Anti-IRAK4 d2), 20× Antibody 2 (Anti-IRAK4 k), and Detection Buffer.
# 4× Lysis Buffer was stored at 4° C. For use as 1× Lysis buffer, the 4× solution was diluted with de-ionized water (distilled water, Gibco Cat. #15230279) and 100× Blocking Reagent in a 1:3:0.04 volume ratio.
# 20× Antibody Solution aliquots were stored in −80° C. and the Detection Buffer was stored in 4° C. For use as a 1× Antibody Solution, the 20× Antibody Solution aliquot was diluted with Detection Buffer in a 1:19 volume ratio.
# Cells were lysed at room temperature for 45 min with shaking. A BCA protein assay was performed and normalization was conducted to the desired total protein concentration with 1× lysis buffer. Next, 1× Antibody Solutions were prepared by adding 380 μL Detection Buffer to 20 μL 20× Antibody Solution aliquots and mixing well. 1× Antibody Solutions were combined 1:1 and briefly vortexed. For control wells, 20 μL 1× anti IRAK4-k Antibody Solution was saved. The 384-well plate (ProxiPlate-384 Plus, Perkin Elmer Cat. #6008289) was loaded by adding 4 μL of the mixed Antibody Solution to empty wells using a single channel repeater. Using a multi-channel repeater, 16 μL lysate was added per well, and any bubbles that were formed were popped with 20 μL pipette tips and Kimwipe edges. In column 10, triplicates of each control was prepared. In wells A10, B10, and C10, buffer control was prepared by adding 16 μL Lysis Buffer and 4 μL Detection Buffer. In wells D10, E10, and F10, cryptate control was prepared by adding 16 μL Lysis Buffer, 2 μL Detection Buffer, and 2 μL 1× anti IRAK4-k Antibody Solution. In wells G10, H10, and I10, a negative control was prepared by adding 16 μL Lysis Buffer and 4 μL mixed Antibody Solution. The plate was sealed with a clear seal and covered with an aluminum lid. The plate was spun down at 800 g for 5 min and incubated in the dark at room temperature overnight. The next day, the plate was spun down at 800 g for 5 min. The samples were analyzed by a plate reader (Envision, PerkinElmer) using the Desnor 384 HTRF program.
ALE THP1 HTRF YMIN [%],EC50 [nM],SMILES
14.1,110,N#Cc1cnc2c(cnn2-c2cc(NC3CCCC3)c(-c3cn([C@H]4CC[C@H](CN5CCC(C(=O)Nc6ccc(C7CCC(=O)NC7=O)cc6)CC5)CC4)nn3)cn2)c1 (stereo partly drawn) [P-47]
12.0,99,N#Cc1cnc2c(ccn2-c2cc(NC3CCCC3)c(C(=O)NC3CCC(CCN4CCN(c5ccc(C6CCC(=O)NC6=O)cc5)CC4)CC3)cn2)c1 (stereo not drawn) [P-48]
10.9,21,N#Cc1cnc2c(ccn2-c2cc(NC3CC3)c(C(=O)NC3CCC(CCN4CCN(c5ccc(C6CCC(=O)NC6=O)cc5)CC4)CC3)cn2)c1 (stereo not drawn) [P-49]
7.5,11,CC(C)Nc1cc(-n2ncc3cc(C#N)cnc32)ncc1C(=O)NC1CCC(CCN2CCN(c3ccc(C4CCC(=O)NC4=O)cc3)CC2)CC1 (stereo not drawn) [P-50]
7.9,9,N#Cc1cnc2c(cnn2-c2cc(NC3CC3)c(C(=O)NC3CCC(CCN4CCN(c5ccc(C6CCC(=O)NC6=O)cc5)CC4)CC3)cn2)c1 (stereo not drawn) [P-51]
13.4,39,N#Cc1cnc2c(cnn2-c2cc(NC3CCCC3)c(C(=O)NC3CCC(CCN4CCC(Nc5cccc(C6CCC(=O)NC6=O)c5)CC4)CC3)cn2)c1 (stereo not drawn) [P-52]
37.6,1890,N#Cc1cnc2c(c1)ncn2-c1cc(NC2CCCC2)c(C(=O)N[C@H]2CC[C@H](CN3CCN(c4ccc5c(c4)C(=O)N(C4CCC(=O)NC4=O)C5=O)CC3)CC2)cn1 (stereo partly drawn) [P-53]
14.6,31,"N#Cc1cnc2c(cnn2-c2cc(NC3CCCC3)c(-c3cn([C@H]4CC[C@H](CCN5CCN(c6ccc(C7CCC(=O)NC7=O)cc6)CC5)CC4)nn3)cn2)c1 (stereo partly drawn) [P-54, 1-(4-(Cyclopentylamino)-5-(1-((1r,4r)-4-(2-(4-(4-(2,6-dioxopiperidin-3-yl)phenyl)piperazin-1-yl)ethyl)cyclohexyl)-1H-1,2,3-triazol-4-yl)pyridin-2-yl)-1H-pyrazolo[3,4-b]pyridine-5-carbonitrile]"
10.3,15,"N#Cc1cnc2c(cnn2-c2cc(NC3CCCC3)c(-n3cc([C@H]4CC[C@H](CN5CCN(c6ccc7c(c6)C(=O)N(C6CCC(=O)NC6=O)C7)CC5)CC4)nn3)cn2)c1 (stereo partly drawn) [P-55, 1-[4-(Cyclopentylamino)-5-[4-[4-[[4-[2-(2,6-dioxo-3-piperidyl)-3-oxo-isoindolin-5-yl]piperazin-1-yl]methyl]cyclohexyl]triazol-1-yl]-2-pyridyl]pyrazolo[3,4-b]pyridine-5-carbonitrile]"
7.7,426,N#Cc1cnc2c(cnn2-c2cc(NC3CCCC3)c(C(=O)NC3CCC(CCN4CCC(c5ccc(C6CCC(=O)NC6=O)cc5)CC4)CC3)cn2)c1 (stereo not drawn) [P-56]
9.7,194,C[C@@H]1CN(c2ccc(C3CCC(=O)NC3=O)cc2)C[C@H](C)N1CCC1CCC(NC(=O)c2cnc(-n3ncc4cc(C#N)cnc43)cc2NC2CCCC2)CC1 (stereo partly drawn) [P-57]
8.5,107,C[C@@H]1CN(c2ccc(C3CCC(=O)NC3=O)cc2)CCN1CCC1CCC(NC(=O)c2cnc(-n3ncc4cc(C#N)cnc43)cc2NC2CCCC2)CC1 (stereo partly drawn) [P-59]
11.3,945,CN(CC1CCC(NC(=O)c2cnc(-n3ncc4cc(C#N)cnc43)cc2NC2CCCC2)CC1)C1CCN(c2ccc(C3CCC(=O)NC3=O)cc2)CC1 (stereo not drawn) [P-60]
9.2,101,N#Cc1cnc2c(cnn2-c2cc(NC3CCCC3)c(C(=O)N[C@H]3CC[C@H](CCN4CCN(c5ccc6c(c5)C(=O)N(C5CCC(=O)NC5=O)C6=O)CC4)CC3)cn2)c1 (stereo partly drawn) [P-61]
6.6,70,C[C@H]1CN(c2ccc(C3CCC(=O)NC3=O)cc2)CCN1CCC1CCC(NC(=O)c2cnc(-n3ncc4cc(C#N)cnc43)cc2NC2CCCC2)CC1 (stereo partly drawn) [P-62]
8.3,6,N#Cc1cnc2c(cnn2-c2cc(N[C@H]3CCC[C@@H]3O)c(C(=O)NC3CCC(CCN4CCN(c5ccc(C6CCC(=O)NC6=O)cc5)CC4)CC3)cn2)c1 (stereo partly drawn) [P-63]
10.1,30,CC(C)CNc1cc(-n2ncc3cc(C#N)cnc32)ncc1C(=O)NC1CCC(CCN2CCN(c3ccc(C4CCC(=O)NC4=O)cc3)CC2)CC1 (stereo not drawn) [P-64]

ALE THP1 HTRF YMIN [%],EC50 [nM],SMILES
7.3,10,CC(F)(F)CNc1cc(-n2ncc3cc(C#N)cnc32)ncc1C(=O)NC1CCC(CCN2CCN(c3ccc(C4CCC(=O)NC4=O)cc3)CC2)CC1 (stereo not drawn) [P-65]
11.2,6,N#Cc1cnc2c(cnn2-c2cc(N[C@H]3CCC[C@H]3O)c(C(=O)NC3CCC(CCN4CCN(c5ccc(C6CCC(=O)NC6=O)cc5)CC4)CC3)cn2)c1 (stereo partly drawn) [P-66]
9.3,34,C[C@H]1CN(c2ccc(C3CCC(=O)NC3=O)cc2)C[C@H](C)N1CCC1CCC(NC(=O)c2cnc(-n3ncc4cc(C#N)cnc43)cc2NC2CCCC2)CC1 (stereo partly drawn) [P-67]
19.3,136,C[C@@H]1CN(c2ccc(C3CCC(=O)NC3=O)cc2)C[C@@H](C)N1CCC1CCC(NC(=O)c2cnc(-n3ncc4cc(C#N)cnc43)cc2NC2CCCC2)CC1 (stereo partly drawn) [P-68]
15.4,417,N#Cc1cnc2c(cnn2-c2cc(NC3CCCC3)c(C(=O)N[C@H]3CC[C@H](CN4CCC(COc5ccc(C6CCC(=O)NC6=O)cc5)CC4)CC3)cn2)c1 (stereo partly drawn) [P-69]
8.2,3,N#Cc1cnc2c(cnn2-c2cc(Nc3cnn(CC(F)(F)F)c3)c(C(=O)NC3CCC(CCN4CCN(c5ccc(C6CCC(=O)NC6=O)cc5)CC4)CC3)cn2)c1 (stereo not drawn) [P-70]
10.9,8,CCNc1cc(-n2ncc3cc(C#N)cnc32)ncc1C(=O)NC1CCC(CCN2CCN(c3ccc(C4CCC(=O)NC4=O)cc3)CC2)CC1 (stereo not drawn) [P-71]
9.5,5,N#Cc1cnc2c(cnn2-c2cc(NC3CC3)c(C(=O)NC3CCC(CCN4CCC(c5ccc(C6CCC(=O)NC6=O)cc5)CC4)CC3)cn2)c1 (stereo not drawn) [P-72]
8.1,58,O=C1CCC(c2ccc(N3CCN(CCC4CCC(NC(=O)c5cnc(Nc6ccc7ncsc7c6)cc5NC5CCCC5)CC4)CC3)cc2)C(=O)N1 (stereo not drawn) [P-73]
9.4,8,N#Cc1cnc2c(cnn2-c2cc(NC3CCOCC3)c(C(=O)NC3CCC(CCN4CCN(c5ccc(C6CCC(=O)NC6=O)cc5)CC4)CC3)cn2)c1 (stereo not drawn) [P-74]
11.4,62,N#Cc1cnn2c(-c3cc(NC4CCCC4)c(C(=O)NC4CCC(CCN5CCN(c6ccc(C7CCC(=O)NC7=O)cc6)CC5)CC4)cn3)ccc2c1 (stereo not drawn) [P-75]
8.3,7,CC1(Nc2cc(-n3ncc4cc(C#N)cnc43)ncc2C(=O)NC2CCC(CCN3CCN(c4ccc(C5CCC(=O)NC5=O)cc4)CC3)CC2)CC1 (stereo not drawn) [P-76]
11.3,28,CC(Nc1cc(-n2ncc3cc(C#N)cnc32)ncc1C(=O)NC1CCC(CCN2CCN(c3ccc(C4CCC(=O)NC4=O)cc3)CC2)CC1)C(F)(F)F (stereo not drawn) [P-77]
7.6,9,C[C@@H](CO)Nc1cc(-n2ncc3cc(C#N)cnc32)ncc1C(=O)NC1CCC(CCN2CCN(c3ccc(C4CCC(=O)NC4=O)cc3)CC2)CC1 (stereo partly drawn) [P-78]
12.2,43,COc1cc(N2CCN(CCC3CCC(NC(=O)c4cnc(-n5ncc6cc(C#N)cnc65)cc4NC4CC4)CC3)CC2)ccc1C1CCC(=O)NC1=O (stereo not drawn) [P-79]
7.3,26,COc1cc(C2CCC(=O)NC2=O)ccc1N1CCN(CCC2CCC(NC(=O)c3cnc(-n4ncc5cc(C#N)cnc54)cc3NC3CC3)CC2)CC1 (stereo not drawn) [P-80]
